# Source: ChEMBL document CHEMBL1156482, “Molecular mechanism of action of monocyclam versus bicyclam non-peptide antagonists in the CXCR4 chemokine receptor” (J Biol Chem, 2007)
# Calls of active or inactive are those of the source. The calls are words filed in the database; no cut-off is given here.
# How the values were obtained:
# [1] = biological target: C-X-C chemokine receptor type 4 (Homo sapiens, UniProt P61073, V196A); experiment: (§1) Antagonist activity at human CXCR4 V196A mutant expressed in COS7 cells coexpressing G protein Gqi4myr assessed as inhibition of CXCL12-induced phosphatidylinositol turnover; format: functional, cell-based, COS-7
# [2] = tested on: C-X-C chemokine receptor type 4 (Homo sapiens), P61073 [V196A]; experiment: as §1; format: functional, cell-based; conditions: COS-7
# [3] = tested on: C-X-C chemokine receptor type 4 (Homo sapiens), P61073 [L120F]; experiment: (§2) Antagonist activity at human CXCR4 L120F mutant expressed in COS7 cells coexpressing G protein Gqi4myr assessed as inhibition of CXCL12-induced phosphatidylinositol turnover; format: functional, cell-based; conditions: COS-7
# [4] = biological target: C-X-C chemokine receptor type 4 (Homo sapiens, UniProt P61073, L120F); experiment: as §2; format: functional, cell-based, COS-7
# [5] = biological target: C-X-C chemokine receptor type 4 (Homo sapiens, UniProt P61073, F174A); experiment: (§3) Displacement of [125I]12G5 antibody from transmembrane domain 4 of human CXCR4 F174A mutant expressed in COS7 cells; format: cell-based, COS-7
# [6] = tested on: C-X-C chemokine receptor type 4 (Homo sapiens), P61073 [F174A]; experiment: as §3; format: cell-based; conditions: COS-7
# [7] = tested on: C-X-C chemokine receptor type 4 (Homo sapiens), P61073 [T287A]; experiment: (§4) Displacement of [125I]12G5 antibody from transmembrane domain 7 of human CXCR4 T287A mutant expressed in COS7 cells; format: cell-based; conditions: COS-7
# [8] = biological target: C-X-C chemokine receptor type 4 (Homo sapiens, UniProt P61073, T287A); experiment: as §4; format: cell-based, COS-7
# [9] = tested on: Human immunodeficiency virus 1; experiment: Antiviral activity against HIV1 clinical isolate 10 infected in U87.CD4 cells expressing human CXCR4 H281A mutant; format: functional, organism-based; conditions: Human immunodeficiency virus 1, U87.CD4
# [10] = tested on: Human immunodeficiency virus 1; experiment: Antiviral activity against HIV1 clinical isolate 10 infected in U87.CD4 cells expressing human CXCR4 D171N mutant; format: functional, organism-based; conditions: Human immunodeficiency virus 1, U87.CD4
# [11] = tested on: C-X-C chemokine receptor type 4 (Homo sapiens), P61073 [Y256A]; experiment: (§5) Displacement of [125I]12G5 antibody from transmembrane domain 6 of human CXCR4 Y256A mutant expressed in COS7 cells; format: cell-based; conditions: COS-7
# [12] = biological target: C-X-C chemokine receptor type 4 (Homo sapiens, UniProt P61073, Y256A); experiment: as §5; format: cell-based, COS-7
# [13] = biological target: C-X-C chemokine receptor type 4 (Homo sapiens, UniProt P61073, Q200W); experiment: (§6) Antagonist activity at human CXCR4 Q200W mutant expressed in COS7 cells coexpressing G protein Gqi4myr assessed as inhibition of CXCL12-induced phosphatidylinositol turnover; format: functional, cell-based, COS-7
# [14] = tested on: C-X-C chemokine receptor type 4 (Homo sapiens), P61073 [Q200W]; experiment: as §6; format: functional, cell-based; conditions: COS-7
# [15] = tested on: C-X-C chemokine receptor type 4 (Homo sapiens), P61073 [G207W]; experiment: (§7) Displacement of [125I]12G5 antibody from transmembrane domain 5 of human CXCR4 G207W mutant expressed in COS7 cells; format: cell-based; conditions: COS-7
# [16] = biological target: C-X-C chemokine receptor type 4 (Homo sapiens, UniProt P61073, G207W); experiment: as §7; format: cell-based, COS-7
# [17] = biological target: C-X-C chemokine receptor type 4 (Homo sapiens, UniProt P61073, H203A); experiment: (§8) Displacement of [125I]12G5 antibody from transmembrane domain 5 of human CXCR4 H203A mutant expressed in COS7 cells; format: cell-based, COS-7
# [18] = tested on: C-X-C chemokine receptor type 4 (Homo sapiens), P61073 [H203A]; experiment: as §8; format: cell-based; conditions: COS-7
# [19] = tested on: C-X-C chemokine receptor type 4 (Homo sapiens), P61073 [A175F]; experiment: (§9) Antagonist activity at human CXCR4 A175F mutant expressed in COS7 cells coexpressing G protein Gqi4myr assessed as inhibition of CXCL12-induced phosphatidylinositol turnover; format: functional, cell-based; conditions: COS-7
# [20] = biological target: C-X-C chemokine receptor type 4 (Homo sapiens, UniProt P61073, A175F); experiment: as §9; format: functional, cell-based, COS-7
# [21] = tested on: Human immunodeficiency virus 1; experiment: Antiviral activity against HIV1 NL43 infected in U87.CD4 cells expressing human CXCR4 H281A mutant; format: functional, organism-based; conditions: Human immunodeficiency virus 1, NL43, U87.CD4
# [22] = tested on: C-X-C chemokine receptor type 4 (Homo sapiens), P61073 [D171N]; experiment: (§10) Displacement of [125I]12G5 antibody from transmembrane domain 4 of human CXCR4 D171N mutant expressed in COS7 cells; format: cell-based; conditions: COS-7
# [23] = biological target: C-X-C chemokine receptor type 4 (Homo sapiens, UniProt P61073, D171N); experiment: as §10; format: cell-based, COS-7
# [24] = tested on: C-X-C chemokine receptor type 4 (Homo sapiens), P61073 [Y255A]; experiment: (§11) Antagonist activity at human CXCR4 Y255A mutant expressed in COS7 cells coexpressing G protein Gqi4myr assessed as inhibition of CXCL12-induced phosphatidylinositol turnover; format: functional, cell-based; conditions: COS-7
# [25] = biological target: C-X-C chemokine receptor type 4 (Homo sapiens, UniProt P61073, Y255A); experiment: as §11; format: functional, cell-based, COS-7
# [26] = tested on: C-X-C chemokine receptor type 4 (Homo sapiens), P61073 [F172A]; experiment: (§12) Antagonist activity at human CXCR4 F172A mutant expressed in COS7 cells coexpressing G protein Gqi4myr assessed as inhibition of CXCL12-induced phosphatidylinositol turnover; format: functional, cell-based; conditions: COS-7
# [27] = biological target: C-X-C chemokine receptor type 4 (Homo sapiens, UniProt P61073, F172A); experiment: as §12; format: functional, cell-based, COS-7
# [28] = tested on: Human immunodeficiency virus 1; experiment: Antiviral activity against HIV1 NL43 infected in U87.CD4 cells expressing human CXCR4 D171N mutant; format: functional, organism-based; conditions: Human immunodeficiency virus 1, NL43, U87.CD4
# [29] = biological target: C-X-C chemokine receptor type 4 (Homo sapiens, UniProt P61073, I259W); experiment: (§13) Antagonist activity at human CXCR4 I259W mutant expressed in COS7 cells coexpressing G protein Gqi4myr assessed as inhibition of CXCL12-induced phosphatidylinositol turnover; format: functional, cell-based, COS-7
# [30] = tested on: C-X-C chemokine receptor type 4 (Homo sapiens), P61073 [I259W]; experiment: as §13; format: functional, cell-based; conditions: COS-7
# [31] = tested on: Human immunodeficiency virus 1; experiment: Antiviral activity against HIV1 NDK infected in U87.CD4 cells expressing human CXCR4 D171N mutant; format: functional, organism-based; conditions: Human immunodeficiency virus 1, NDK
# [32] = tested on: Human immunodeficiency virus 1; experiment: Antiviral activity against HIV1 NDK infected in U87.CD4 cells expressing human CXCR4 D171ND262N mutant; format: functional, organism-based; conditions: Human immunodeficiency virus 1, NDK
# [33] = biological target: C-X-C chemokine receptor type 4 (Homo sapiens, UniProt P61073, H281A); experiment: (§14) Displacement of [125I]12G5 antibody from transmembrane domain 7 of human CXCR4 H281A mutant expressed in COS7 cells; format: cell-based, COS-7
# [34] = tested on: C-X-C chemokine receptor type 4 (Homo sapiens), P61073 [H281A]; experiment: as §14; format: cell-based; conditions: COS-7
# [35] = tested on: Human immunodeficiency virus 1; experiment: Antiviral activity against HIV1 NL43 infected in U87.CD4 cells expressing human CXCR4 D171N/D262N mutant; format: functional, organism-based
# [36] = tested on: C-X-C chemokine receptor type 4 (Homo sapiens), P61073 [D262N]; experiment: (§15) Antagonist activity at human CXCR4 D262N mutant expressed in COS7 cells coexpressing G protein Gqi4myr assessed as inhibition of CXCL12-induced phosphatidylinositol turnover; format: functional, cell-based; conditions: COS-7
# [37] = biological target: C-X-C chemokine receptor type 4 (Homo sapiens, UniProt P61073, D262N); experiment: as §15; format: functional, cell-based, COS-7
# [38] = tested on: C-X-C chemokine receptor type 4 (Homo sapiens), P61073 [D187A]; experiment: (§16) Displacement of [125I]12G5 antibody from extracellular loop 2 of human CXCR4 D187A mutant expressed in COS7 cells; format: cell-based; conditions: COS-7
# [39] = biological target: C-X-C chemokine receptor type 4 (Homo sapiens, UniProt P61073, D187A); experiment: as §16; format: cell-based, COS-7
# Chain of C-X-C chemokine receptor type 4 (Homo sapiens, UniProt P61073, D187A) (P61073 whole entry D187A): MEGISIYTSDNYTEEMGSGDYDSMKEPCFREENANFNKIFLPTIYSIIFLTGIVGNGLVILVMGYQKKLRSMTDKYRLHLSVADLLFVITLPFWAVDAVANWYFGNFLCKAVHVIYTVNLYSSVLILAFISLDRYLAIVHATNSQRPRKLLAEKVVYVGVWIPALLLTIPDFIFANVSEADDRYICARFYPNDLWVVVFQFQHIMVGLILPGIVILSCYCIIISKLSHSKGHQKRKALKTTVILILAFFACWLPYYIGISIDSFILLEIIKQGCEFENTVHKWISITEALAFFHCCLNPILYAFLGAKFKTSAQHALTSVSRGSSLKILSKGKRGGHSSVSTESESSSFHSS
# Chain of C-X-C chemokine receptor type 4 (Homo sapiens, UniProt P61073, L120F) (P61073 whole entry L120F, the tested form may be a part): as the sequence (P61073 whole entry D187A) above, with L120F, A187D counted along it
# Chain of C-X-C chemokine receptor type 4 (Homo sapiens), P61073 [L120F] (P61073 whole entry L120F): as the sequence (P61073 whole entry D187A) above, with L120F, A187D counted along it
# Chain of C-X-C chemokine receptor type 4 (Homo sapiens), P61073 [H281A] (P61073 whole entry H281A): as the sequence (P61073 whole entry D187A) above, with A187D, H281A counted along it
# Chain of C-X-C chemokine receptor type 4 (Homo sapiens, UniProt P61073, H281A) (P61073 whole entry H281A, the tested form may be a part): as the sequence (P61073 whole entry D187A) above, with A187D, H281A counted along it
# Chain of C-X-C chemokine receptor type 4 (Homo sapiens, UniProt P61073, G207W) (P61073 whole entry G207W, the tested form may be a part): as the sequence (P61073 whole entry D187A) above, with A187D, G207W counted along it
# Chain of C-X-C chemokine receptor type 4 (Homo sapiens), P61073 [G207W] (P61073 whole entry G207W, the tested form may be a part): as the sequence (P61073 whole entry D187A) above, with A187D, G207W counted along it
# Chain of C-X-C chemokine receptor type 4 (Homo sapiens, UniProt P61073, H203A) (P61073 whole entry H203A, the tested form may be a part): as the sequence (P61073 whole entry D187A) above, with A187D, H203A counted along it
# Chain of C-X-C chemokine receptor type 4 (Homo sapiens), P61073 [H203A] (P61073 whole entry H203A): as the sequence (P61073 whole entry D187A) above, with A187D, H203A counted along it
# Chain of C-X-C chemokine receptor type 4 (Homo sapiens), P61073 [F172A] (P61073 whole entry F172A): as the sequence (P61073 whole entry D187A) above, with F172A, A187D counted along it
# Chain of C-X-C chemokine receptor type 4 (Homo sapiens, UniProt P61073, F172A) (P61073 whole entry F172A): as the sequence (P61073 whole entry D187A) above, with F172A, A187D counted along it
# Chain of C-X-C chemokine receptor type 4 (Homo sapiens), P61073 [D187A] (P61073 whole entry D187A): as the sequence (P61073 whole entry D187A) above
# Chain of C-X-C chemokine receptor type 4 (Homo sapiens, UniProt P61073, V196A) (P61073 whole entry V196A): as the sequence (P61073 whole entry D187A) above, with A187D, V196A counted along it
structure (smiles),measurement,setting,value
c1ccc(CNCc2ccc(CN3CCCNCCNCCCNCC3)cc2)nc1,Ki,[1],200 nM
same,logIC50,[2],-7.71
same,logIC50,[3],-8.18
same,Ki,[4],10 nM
same,Ki,[5],980 nM
same,logKi,[6],-6.01
same,logKi,[7],-5.71
same,Ki,[8],2000 nM
same,IC50,[9],1950 nM
same,IC50,[10],183000 nM
same,logKi,[11],-6.5
same,Ki,[12],320 nM
same,Ki,[13],220 nM
same,logIC50,[14],-6.65
same,logKi,[15],-6.88
same,Ki,[16],130 nM
same,Ki,[17],440 nM
same,logKi,[18],-6.35
same,logIC50,[19],-5.89
same,Ki,[20],1300 nM
same,IC50,[21],> 1100 nM
same,logKi,[22],-5.49
same,Ki,[23],3200 nM
same,logIC50,[24],-7.79
same,Ki,[25],20 nM
same,logIC50,[26],-7.93
same,Ki,[27],10 nM
same,IC50,[28],164000 nM
same,Ki,[29],80 nM
same,logIC50,[30],-7.08
same,IC50,[31],22000 nM
same,IC50,[32],4640 nM
same,Ki,[33],519000 nM
same,logKi,[34],-3.29
same,Activity,[35],Active
same,logIC50,[36],-5.11
same,Ki,[37],7800 nM
same,logKi,[38],-6.27
same,Ki,[39],530 nM
